This is an account of results in EP0196574A2, “4,4'-Diaminodiphenyl compounds, process for their preparation and their use” (HOECHST AKTIENGESELLSCHAFT, priority 1985, dated 1986).

In the data set the test system is Salmonella typhimurium (Stämme TA 98, TA 100, TA 1535, TA 1537, TA 1538). In words: Ames mutagenicity test. It counts as cell-based. As to conditions: strains TA 98, TA 100, TA 1535, TA 1537, TA 1538, ohne und in Gegenwart von S-9-Mix; for Ames-Test: table of further examples. The source says:
Die folgenden Beispiele sollen die Erfindung näher beschreiben. Der Mutagenitätstest wurde nach Ames mit Salmonella typhimurium (Stämme TA 98, TA 100, TA 1535, TA 1537, TA 1538) ohne und in Gegenwart von S-9-Mix durchgeführt (B.N. Ames et al., Mut. Res. Vol. 31, S. 347 - 364 (1975)).

As for `CCC(C)Oc1cc(-c2ccc(N)c(OC(C)CC)c2)ccc1N` (stereo not shown) [Beispiel 10], the Ames-Test entry is “negativ”.

Turning to `CCC(C)c1cc(-c2ccc(N)c(C(C)CC)c2)ccc1N` (stereo not shown) [Beispiel 7], the Ames-Test entry was “negativ”.

As for `CCCOc1cc(-c2ccc(N)c(OCCC)c2)ccc1N` [Beispiel 8], the Ames-Test result is recorded as “negativ”.

As to `CCCCc1cc(-c2ccc(N)c(CCCC)c2)ccc1N` [Beispiel 5], the Ames-Test entry is listed as “negativ”.

Regarding `CC(C)Cc1cc(-c2ccc(N)c(CC(C)C)c2)ccc1N` [Beispiel 6], the Ames-Test result is recorded as “negativ”.

For the compound `CC(C)Oc1cc(-c2ccc(N)c(OC(C)C)c2)ccc1N` [Beispiel 9], the Ames-Test result is “negativ”.

With `COCCOc1cc(-c2ccc(N)c(OCCOC)c2)ccc1N` [Beispiel 3, 3,3'-Di-(2-methoxyethoxy)-benzidin], the “Mutagenitätstest nach Ames” value is listed as “negativ”.

As for `CCCc1cc(-c2ccc(N)c(CCC)c2)ccc1N` [Beispiel 4], the Ames-Test entry is reported as “negativ”.

For the compound `CC(C)c1cc(-c2ccc(N)c(C(C)C)c2)ccc1N` [Beispiel 1, 3,3-Diisopropyl-benzidin-dichlorhydrat], the “Mutagenitätstest nach Ames” value is reported as “negativ”.

Turning to `CC(C)COc1cc(-c2ccc(N)c(OCC(C)C)c2)ccc1N` [Beispiel 2, 3,3'-Di-isobutoxybenzidin], the “Mutagenitätstest nach Ames” value is reported as “negativ”.
